Assay results published in patent EP4617261A1, “2,4,5-TRISUBSTITUTED PYRIMIDINE COMPOUND, PREPARATION METHOD THEREFOR, AND USE THEREOF” (Wenzhou Medical University, priority 2022, dated 2024).

How the values were obtained:
MRC-5 = assay: MTT assay, cell proliferation, MRC-5; assay type: cell-based; conditions: Homo sapiens, MRC5, MRC-5 cells, 72 h
Method: (§1) The effect of active compounds on cell proliferation was measured using an MTT assay. An experimental method was described as follows: the compounds under test were first dissolved in DMSO to prepare a stock solution, which was then diluted in gradient with a culture medium of the corresponding cells to prepare test samples, with a final concentration range of the compounds up to 20 µM. Cells in a logarithmic growth phase were seeded into 96-well cell culture plates at an appropriate density, and cultured overnight under corresponding culture conditions, and samples of the compound under test were added and continuously cultured for 72 h.

H1581 = assay: MTT assay, cell proliferation, H1581; assay type: cell-based; conditions: Homo sapiens, NCI-H1581, H1581 cells, 72 h
Method: as §1

A549 = assay: MTT assay, cell proliferation, A549; assay type: cell-based; conditions: Homo sapiens, A549 cells, 72 h
Method: as §1, with “An” for “The effect of active compounds on cell proliferation was measured using an MTT assay. An”

FGFR1 kinase = biological target: T1, FGFR1 kinase (Homo sapiens, UniProt P11362); assay: LANCE ULTRA Assay, inhibitory activity on FGFR1 kinase; assay type: biochemical; conditions: for inhibition at 0.1 µM: read-out: In vitro FGFR1 kinase inhibition rate (%) (Concentration in 100 nM), Concentration 100 nM; for inhibition at 1 µM: read-out: In vitro FGFR1 kinase inhibition rate (%) (Concentration in 1000 nM), Concentration 1000 nM
T1 construct: purchased CARNA
Method: The inhibitory activity of the compounds on FGFR1 kinase was determined using a LANCE ULTRA Assay. The FGFR1 kinase was purchased from CARNA. Specific method was as follows: the compounds under test, adenosine triphosphate (ATP), specific substrate, and FGFR1 kinase were diluted with kinase diluent. A kinase reaction mixture contained FGFR1, ATP, substrate, HEPES (pH = 7.5), MgCl2, EGTA, and Tween-20. A group without any test compound served as a 100% phosphorylation control, and a group where EDTA was added immediately after the addition of FGFR1 kinase served as a 0% phosphorylation control. The kinase reaction mixture was incubated at room temperature for 1 h, and EDTA was added to terminate the reaction for 5 min, a specific antibody was then added, and the mixture was incubated at room temperature for another 1 h, and excitation light was detected using a PerkinElmer Envision Kinase Reader.

T1 sequence (P11362 22-822): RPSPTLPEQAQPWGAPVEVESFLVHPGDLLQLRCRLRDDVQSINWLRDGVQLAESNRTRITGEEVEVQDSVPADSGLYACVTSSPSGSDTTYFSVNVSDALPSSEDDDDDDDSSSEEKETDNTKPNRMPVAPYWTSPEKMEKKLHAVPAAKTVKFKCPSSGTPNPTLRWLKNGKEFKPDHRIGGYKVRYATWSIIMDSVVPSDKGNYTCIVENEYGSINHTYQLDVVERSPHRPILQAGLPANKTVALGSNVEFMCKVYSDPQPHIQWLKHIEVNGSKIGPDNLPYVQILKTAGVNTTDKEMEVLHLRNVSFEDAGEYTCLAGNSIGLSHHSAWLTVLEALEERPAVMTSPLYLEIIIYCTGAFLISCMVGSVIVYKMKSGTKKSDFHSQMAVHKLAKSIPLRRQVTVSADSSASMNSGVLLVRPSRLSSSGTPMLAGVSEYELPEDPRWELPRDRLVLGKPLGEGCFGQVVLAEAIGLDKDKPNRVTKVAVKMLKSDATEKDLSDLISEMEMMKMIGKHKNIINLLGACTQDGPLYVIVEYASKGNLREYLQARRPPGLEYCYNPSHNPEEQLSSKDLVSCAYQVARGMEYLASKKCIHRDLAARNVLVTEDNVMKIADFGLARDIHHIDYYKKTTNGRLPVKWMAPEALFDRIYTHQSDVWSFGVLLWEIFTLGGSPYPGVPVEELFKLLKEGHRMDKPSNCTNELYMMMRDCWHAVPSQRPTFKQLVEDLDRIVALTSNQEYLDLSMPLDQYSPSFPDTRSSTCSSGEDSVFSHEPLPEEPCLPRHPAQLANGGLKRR

| Compound | inhibition at 0.1 µM (FGFR1 kinase) | further results |
| --- | --- | --- |
| C=CC(=O)Nc1ccc(Nc2nc(Nc3ccc(N4C[C@@H](C)N[C@@H](C)C4)c(OC)c3)ncc2Cl)cc1Cl [Compound 46] |  | IC50 (MRC-5): 0.84 ± 0.07 µM; IC50 (H1581): 0.018 ± 0.00178 µM; IC50 (A549): 0.38 ± 0.1 µM |
| CCN1CCN(c2ccc(Nc3cc(N(C)C(=O)Nc4c(Cl)c(OC)cc(OC)c4Cl)ncn3)cc2)CC1 [BGJ398, reference compound] |  | IC50 (MRC-5): 144 µM; IC50 (H1581): 0.0867 ± 0.00151 µM |
| C=CC(=O)Nc1ccc(CCNc2nc(Nc3ccc(N4CCN(C)CC4)cc3)ncc2Cl)cc1 [Compound 33, N-(4-(2-((5-chloro-2-((4-(4-methylpiperazine-1-yl)phenyl)amino)pyrimidine-4-yl)amino)ethyl)phenyl)acrylamide] | 66.4% | IC50 (FGFR1 kinase; read-out: In vitro FGFR1 kinase IC50 value): 60.7 nM |
| C=CC(=O)Nc1cccc(C)c1Nc1nc(Nc2ccc(N3CCN(C)CC3)cc2)ncc1OC [Compound 13] | -0.1% |  |
| C=CC(=O)Nc1cccc(C)c1Nc1nc(Nc2ccc(N3CCN(C)CC3)cc2)ncc1Cl [Compound 11, N-(2-((5-chloro-2-((4-(4-methylpiperazine-1-yl)phenyl)amino)pyrimidine-4-yl)amino)-3-methylphenyl)acrylamide] | 1.4% |  |
| C=CC(=O)Nc1ccc(CCNc2nc(Nc3ccc(N4CCN(C)CC4)cc3)ncc2F)cc1 [Compound 17] | 43% |  |
| C=CC(=O)Nc1cccc(C)c1Nc1nc(Nc2ccc(N3CCN(C)CC3)cc2)ncc1C(F)(F)F [Compound 14] | 11.4% |  |
| C=CC(=O)Nc1ccc(CNc2nc(Nc3ccc(N4CCN(C)CC4)cc3)ncc2F)cc1 [Compound 18] | 5.5% |  |
| C=CC(=O)Nc1ccccc1Nc1nc(Nc2ccc(N3CCN(C)CC3)cc2)ncc1Cl [Compound 9] |  | inhibition at 1 µM (FGFR1 kinase): 94.9% |
| C=CC(=O)Nc1cccc(C)c1Nc1nc(Nc2ccc(N3CCN(C)CC3)cc2)ncc1F [Compound 10] |  | inhibition at 1 µM (FGFR1 kinase): 1.23% |
| C=CC(=O)NC(=O)c1ccc(Nc2nc(Nc3ccc(N4CCN(C)CC4)cc3)ncc2Cl)cc1Cl [Compound 38, N-acryloyl-2-chloro-4-((5-chloro-2-((4-(4-methylpiperazine-1-yl)phenyl)amino)pyrimidine-4-yl)amino)benzamide] | 50.3% |  |
| C=CC(=O)Nc1cccc(C)c1Nc1nc(Nc2ccc(N3CCN(C)CC3)cc2)ncc1C [Compound 12] | -1.1% |  |
